Results on 9 compounds are retold here after patent publication US20120202690A1, “HERBICIDAL COMPOUNDS” (SYNGENTA LIMITED, priority 2009, published 2012).

Common to all, as to type: in vivo
The test system of experiment [1] is Setaria faberi (SETFA). Briefly: Post-emergence biological efficacy, glasshouse, 500 or 1000 g/ha, evaluated after 13 days (100=total damage to plant; 0=no damage to plant). The conditions noted are these: Setaria faberi, 312 h, rate 1,000 g/ha, read-out: Percentage damage caused to weed species, post-emergence, SETFA. The method in brief: (§1)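 Damage is scored on pot-grown plants, sown in standard soil and sprayed after emergence, that were held post-treatment in a glasshouse (24/16° C. day/night, 14 hours light, 65% humidity).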

Experiment [2] relates to Echinochloa crusgaffi (ECHCG). The experiment is described as above. The conditions noted are these: Echinochloa, 312 h, rate 1,000 g/ha, read-out: Percentage damage caused to weed species, post-emergence, ECHCG. Summed up:
as §1

Experiment [3] relates to Ipomoea hederaceae (IPOHE). Described as above. The conditions noted are these: Ipomoea, 312 h, rate 1,000 g/ha, read-out: Percentage damage caused to weed species, post-emergence, IPOHE. The method in brief: as §1
Experiment [4] concerns Amaranthus retroflexus (AMARE). The experiment is described as above. The conditions noted are these: Amaranthus retroflexus, 312 h, rate 1,000 g/ha, read-out: Percentage damage caused to weed species, post-emergence, AMARE. The method in brief:
as §1

The test system of experiment [5] is Solanum nigrum (SOLNI). Described as above. Particulars: Solanum nigrum, 312 h, rate 1,000 g/ha, read-out: Percentage damage caused to weed species, post-emergence, SOLNI. The method in brief:
as §1

Experiment [6] relates to Alopecurus myosuroides (ALOMY). The experiment is described as above. The conditions noted are these: Alopecurus myosuroides, 312 h, rate 1,000 g/ha, read-out: Percentage damage caused to weed species, post-emergence, ALOMY. The method in brief:
as §1

Experiment [7] relates to Setaria faberi (SETFA). Briefly: Pre-emergence biological efficacy, glasshouse, 1000 g/ha, evaluated after 13 days (100=total damage to plant; 0=no damage to plant). The conditions noted are these: Setaria faberi, 312 h, rate 1,000 g/ha, read-out: Percentage damage caused to weed species, pre-emergence, SETFA. The method in brief:
(§2)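 Sowing: standard soil, pots. Growth: glasshouse, 24/16° C. day/night, 14 hours light, 65% humidity. Watering: twice daily.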

Experiment [8] deals with Echinochloa crus-galli (ECHCG). The experiment is described as above. Particulars: Echinochloa crus-galli, 312 h, rate 1,000 g/ha, read-out: Percentage damage caused to weed species, pre-emergence, ECHCG. The method in brief:
as §2

For experiment [9], the system named is Ipomoea hederaceae (IPOHE). The experiment is described as above. Particulars: Ipomoea, 312 h, rate 1,000 g/ha, read-out: Percentage damage caused to weed species, pre-emergence, IPOHE. The method in brief:
as §2

Experiment [10] concerns Amaranthus retroflexus (AMARE). The description is as above. Particulars: Amaranthus retroflexus, 312 h, rate 1,000 g/ha, read-out: Percentage damage caused to weed species, pre-emergence, AMARE. The method in brief: as §2
The subject of experiment [11] is Solanum nigrum (SOLNI). The experiment is described as above. The conditions noted are these: Solanum nigrum, 312 h, rate 1,000 g/ha, read-out: Percentage damage caused to weed species, pre-emergence, SOLNI. Summed up:
as §2

Experiment [12] relates to Alopecurus myosuroides (ALOMY). The experiment is described as above. Particulars: Alopecurus myosuroides, 312 h, rate 1,000 g/ha, read-out: Percentage damage caused to weed species, pre-emergence, ALOMY. Summed up: as §2

Turning to `COC(=O)c1nc(-c2ccc(Cl)c(OC)c2F)nc2c1c(C)cn2C(=O)OC` [Compound 17-64, 2-(4-Chloro-2-fluoro-3-methoxyphenyl)-4,7-di(methoxycarbonyl)-5-methyl-7H-pyrrolo[2,3-d]pyrimidine], the pest or weed control at 1000 g/ha in [1] came to 0%; in experiment [2] it was 0%; in experiment [3] it was 0%; in [4] it was 0%; in [5], 20%; in experiment [6] it was 0%. Further, the pest or weed control at 1000 g/ha in experiment [7], in experiment [8], in experiment [9], in [10], in [11] and in experiment [12] was 0% in each case.

With `COC(=O)c1nc(-c2ccc(Cl)c(OC)c2F)nc2c1c(C)cn2S(C)(=O)=O` [Compound 18-64, 2-(4-chloro-2-fluoro-3-methoxyphenyl)-4-methoxycarbonyl-5-methyl-7-methylsulphonyl-7H-pyrrolo[2,3-d]pyrimidine], the pest or weed control at 1000 g/ha in [1] turned out to be 30%; in [2], 10%; in experiment [3], 40%; in [4], 20%; in experiment [5], 40%; in experiment [6], 10%. The pest or weed control at 1000 g/ha in experiment [7], in experiment [8], in experiment [9], in experiment [10], in experiment [11] and in [12] was 0% in each case.

With `COc1c(Cl)ccc(-c2nc(C(=O)O)c3c(C)cn(S(=O)(=O)c4ccc(C)cc4)c3n2)c1F` [Compound 19-63, 4-Carboxy-2-(4-chloro-2-fluoro-3-methoxyphenyl)-5-methyl-7-(4-methylphenyl-sulphonyl)-7H-pyrrolo[2,3-d]pyrimidine], the pest or weed control at 1000 g/ha was found to be 0% in experiment [1]; 0% in [2]; 60% in [3]; 50% in experiment [4]; 70% in experiment [5]; 0% in [6]. The pest or weed control at 1000 g/ha in [7], in experiment [8], in [9], in experiment [10], in experiment [11] and in experiment [12] was 0% throughout.

`COC(=O)c1nc(-c2ccc(Cl)c(OC)c2F)nc2scc(C)c12` [Compound 21-64, 2-(4-Chloro-2-fluoro-3-methoxyphenyl)-4-methoxycarbonyl-5-methyl-thieno[2,3-d]pyrimidine]: the pest or weed control at 1000 g/ha in experiment [1] turned out to be 0%; in experiment [2], 10%; in [3], 40%; in [4] it was 80%; in experiment [5], 70%; in experiment [6], 0%. Besides, the pest or weed control at 1000 g/ha in experiment [7], in [8], in experiment [9], in [10], in experiment [11] and in [12] was 0% throughout.

For `COC(=O)c1nc(-c2ccc(Cl)c(F)c2)cc2[nH]cc(C)c12` [Compound 22-20, 6-(4-Chloro-3-fluorophenyl)-4-methoxycarbonyl-3-methyl-1H-pyrrolo[3,2-c]pyridine], the pest or weed control at 1000 g/ha in experiment [1] is 60%; in experiment [2], 70%; in experiment [3] it was 70%; in experiment [4], 100%; in experiment [5], 80%; in experiment [6], 50%. The pest or weed control at 1000 g/ha in [7] amounted to 0%; in experiment [8], 20%; in [9] it was 80%; in [10], 100%; in [11], 60%; in experiment [12] it was 20%.

`COC(=O)c1nc(-c2ccc(Cl)c(OC)c2F)cc2[nH]ccc12` [Compound 22-62, 6-(4-Chloro-2-fluoro-3-methoxyphenyl)-4-methoxycarbonyl-1H-pyrrolo[3,2-c]pyridine]: the pest or weed control at 1000 g/ha in experiment [1] is 20%; in [2] it was 50%; in experiment [3] it was 60%; in experiment [4], 80%; in experiment [5], 70%; in experiment [6] it was 0%. The pest or weed control at 1000 g/ha in experiment [7] came out at 0%; in [8] it was 0%; in experiment [9], 50%; in experiment [10], 20%; in experiment [11] it was 20%; in experiment [12], 0%.

As for `COc1c(Cl)ccc(-c2cc3[nH]cc(C)c3c(C(=O)O)n2)c1F` [Compound 22-63, 4-Carboxy-6-(4-chloro-2-fluoro-3-methoxyphenyl)-3-methyl-1H-pyrrolo[3,2-c]pyridine], the pest or weed control at 1000 g/ha turned out to be 90% in experiment [1]; 70% in [2]; 70% in experiment [3]; 70% in experiment [4]; 80% in experiment [5]; 40% in experiment [6]. For the same compound, the pest or weed control at 1000 g/ha was 0% in experiment [7]; 0% in [8]; 70% in [9]; 20% in experiment [10]; 60% in experiment [11]; 0% in [12].

With `COC(=O)c1nc(-c2ccc(Cl)c(OC)c2F)cc2[nH]cc(C)c12` [Compound 22-64, 6-(4-chloro-2-fluoro-3-methoxyphenyl)-4-methoxycarbonyl-3-methyl-1H-pyrrolo[3,2-c]pyridine], the pest or weed control at 1000 g/ha was found to be 70% in experiment [1]; 80% in experiment [2]; 70% in [3]; 100% in [4]; 90% in experiment [5]; 50% in [6]. The pest or weed control at 1000 g/ha stood at 20% in [7]; 70% in experiment [8]; 60% in [9]; 90% in experiment [10]; 80% in [11]; 10% in [12].

Take `CCOC(=O)c1nc(-c2ccc(Cl)c(OC)c2F)cc2[nH]cc(C)c12` [Compound 22-75, 6-(4-chloro-2-fluoro-3-methoxyphenyl)-4-ethoxycarbonyl-3-methyl-1H-pyrrolo[3,2-c]pyridine]: the pest or weed control at 1000 g/ha in experiment [1] was determined as 50%; in experiment [2], 20%; in experiment [3] it was 60%; in experiment [4], 80%; in experiment [5], 90%; in [6], 10%. Also, the pest or weed control at 1000 g/ha is 0% in [7]; 10% in experiment [8]; 90% in experiment [9]; 70% in experiment [10]; 80% in experiment [11]; 10% in experiment [12].
